From PubChem BioAssay AID179 (DTP/NCI, 2004) come the findings set out here.

Several values for one entry are separate records, joined by “and”; a condition that tells them apart may be missing. Equal values may be shown once. Activity calls are given as the source filed them.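 The calls were made as follows: active = compounds giving half or more protection of infected cells from virus-caused growth loss, again on retest; inactive = the rest.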 A value given as a limit tells only on which side of the number the result lay.

The subject of the assay is CEM cells HIV-1 protection, formazan growth assay. The experiment in a line: NCI AIDS Antiviral Assay. The following applies: for IC50: measured here: growth of uninfected CEM cells. In a few lines: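 Protection of CEM cells against HIV-1 measured as cell growth via soluble formazan read-out, with five concentrations tested on both infected and uninfected cells; failure to protect may reflect toxicity.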

`C[C@@H](CCO)OC1OC(COC(=O)C(C)(C)C)C(OC(=O)C(C)(C)C)C(OC(=O)C(C)(C)C)C1OC(=O)C(C)(C)C` (stereo partly drawn): the EC50 (commonly the midpoint of the concentration-response curve) was over 200 µM and the IC50 (in general, the concentration that inhibits the measured activity by half) came to 12 µM.
Regarding `CCOC(=O)/C(=C\c1ccc(OC)cc1)[Se]c1ccccc1`, the EC50 is over 20 µM and the IC50 is over 20 µM.
On to `CC(C)Oc1c(-c2ccc(F)cc2)c(O)c2c3c1oc(=O)n3C=CC2C` (stereo not drawn), for which the EC50 is 13.2 µM and the IC50 amounted to 14.8 µM.
`[O-][N+]1=C(c2ccccc2)COc2ccccc21`: the EC50 was over 115 µM and the IC50 was over 115 µM.
Take `CN(C)c1ccc(/C=C(\C#N)c2c(Br)cccc2Br)cc1`: the EC50 is over 200 µM and the IC50 was determined as 4.17 µM.
With `COP1(=O)OCC(C)(C)CO1`, the EC50 is over 1380 µM and the IC50 is over 1380 µM.
For the compound `O=C(O)c1cc(Cc2cc(C(=O)O)c(O)c3ccccc23)c2ccccc2c1O`, the EC50 was over 0.813 µM and the IC50 was over 0.813 µM.
Take `O=c1[nH][nH]c(=O)n1Cc1ccccc1Cn1c(=O)[nH][nH]c1=O`: the EC50 was over 100 µM and the IC50 was over 100 µM.
As for `CCCCCCCCCCCCCCCCOC1OC(COC(C)=O)C(OC(C)=O)C(OC(C)=O)C1O` (stereo not drawn), the EC50 was over 13.5 µM and the IC50 was over 13.5 µM.
With `CCn1cc2c(=O)n3ncn(-c4ccc(Br)cc4)c3nc2n1`, the result was inactive.
Regarding `Cc1ccc(NC(=S)Nc2ccc(C)cn2)nc1`, the EC50 is over 200 µM and the IC50 was over 200 µM.
On to `Clc1cccc(NC(c2ccccc2)=[N+]2CCCCC2)c1`, for which the EC50 was over 200 µM and the IC50 came out at 30.9 µM.
On the same counts, the results for `Cc1ccc(S(=O)(=O)N/N=C2\C3CC4CC(C3)C2C4)cc1` (stereo not drawn) are over 200 µM and 95.5 µM.
For `Cn1c(N)c(N=Nc2ccc(S(=O)(=O)Nc3ncccn3)cc2)c(=O)n(C)c1=O` the same measures were over 200 µM and over 200 µM.
Consider `O=C1Sc2ccccc2C(=O)N2CSCC12` (stereo not drawn), for which the result was inactive and the IC50 was over 200 µM.
In the case of `O=C1C=CC(=O)c2c1ccc1c3ccccc3n(CCCCCCCCn3c4ccccc4c4ccc5c(c43)C(=O)C=CC5=O)c21`, the EC50 is over 100 µM and the IC50 worked out at 52.5 µM.
Take `CN(C)C(=S)Nc1nnc(Nc2ccccc2)s1`: the outcome was inactive.
The same measure, in the same setting: to `O=C1[C@H]2CCCC[C@H]2C(=O)N1N1C(=O)[C@H]2CCCC[C@H]2C1=O` belongs “inactive”.
`O=[N+]([O-])c1cccc(S(=O)(=O)N/N=C/c2cc(I)cc([N+](=O)[O-])c2O)c1`: the EC50 is over 363 µM and the IC50 turned out to be 63.1 µM.
On the same counts, the results for `Nc1ncnc2c1ncn2C1OC(COP(=O)(O)CP(=O)(O)O)C(O)C1O` (stereo not drawn) are over 200 µM and over 200 µM.
On the same counts, the results for `Cc1ccc(N2C=[N+](C)c3ccc(C)cc3C2)cc1` are over 200 µM and 33.9 µM.
Consider `O=C(O)c1ccccc1SSc1ccccc1C(=O)O`, for which the EC50 is 112 µM and > 589 µM and > 200 µM; the IC50 is 589 µM and > 589 µM and > 200 µM.
With `C=CCP(=O)(c1ccccc1)c1ccccc1`, the EC50 is 0.0631 µM and the IC50 is over 200 µM.
For the compound `ClC1c2ccccc2-c2nsnc2C1Cl` (stereo not drawn), the EC50 was over 28.2 µM and the IC50 is over 28.2 µM.
With `CC1(C)CC(=O)C2=C(C1)OC1=C(C(=O)CC(C)(C)C1)C2C(O)C(O)C(O)CO` (stereo not drawn), the EC50 is over 200 µM and the IC50 is over 200 µM.
Turning to `CC(=O)NC1C(O)OC(CO)C(O)C1OC(C)C(=O)N[C@@H](CC(N)=O)C(=O)N[C@H](CCC(=O)O)C(N)=O` (stereo partly drawn), the EC50 is over 468 µM and the IC50 was found to be 219 µM.
For `CS(=O)(=O)NC(=O)C[P+](c1ccccc1)(c1ccccc1)c1ccccc1` the same measures were over 200 µM and over 200 µM.
On the same counts, the results for `O=C(C(/C=N/C(=S)NC1C(=O)Nc2ccccc21)=C(/O)c1ccccc1)c1ccccc1` (stereo not drawn) are over 200 µM and 41.7 µM.
For `CC1(C)CSCC(C)(C)C(=N/N)/C1=N\N` the same measures were over 200 µM and over 200 µM.
As for `CCCCNC=C1C(=O)Nc2ccccc2NC1=O`, the EC50 is over 200 µM and the IC50 is over 200 µM.
For the compound `CCOC(=O)C1CC=CC(NC(=O)OC(C)(C)C)C1(c1ccccc1)[N+](=O)[O-]` (stereo not drawn), the outcome was inactive.
Still for that read-out and setting: to `COC1/C=C\OC2(C)Oc3c(C)c(O)c4c(O)c(c(CN(C)C)c(O)c4c3C2=O)NC(=O)/C(C)=C\C=C/C(C)C(O)C(C)C(O)C(C)C(OC(C)=O)C1C` (stereo not drawn) belongs “inactive”.
In the case of `CC(C)CCCC(C)[C@H]1CC[C@H]2[C@@H]3CC[C@H]4C[C@@H](CCC=C(c5cc(Cl)c(OCC(=O)O)c(C(=O)O)c5)c5cc(Cl)c(OCC(=O)O)c(C(=O)O)c5)CC[C@]4(C)[C@H]3CC[C@]12C` (stereo partly drawn), the EC50 was 91.2 µM and the IC50 was over 100 µM.
`COc1ccc2c(c1)[n+]([O-])c(-c1ccc([N+](=O)[O-])cc1)c(N)[n+]2[O-]`: the result was inactive.
Regarding `C[C@H](O)C(=O)SC[C@H](NC(=O)CC[C@@H](N)C(=O)O)C(=O)NCC(=O)O`, the EC50 is over 200 µM and the IC50 was over 200 µM.
On to `Cc1cc([N+](=O)[O-])c(=O)[nH]c1C`, for which the EC50 was over 1480 µM and the 50% inhibitory concentration (IC50) is 832 µM.
For `c1ccc(-n2nc3ccc4nonc4c3n2)cc1` the same measures were over 200 µM and over 200 µM.
In the case of `COc1ccc(OC)c2c3c(ccc12)C(C)(c1ccccc1)OC3=O` (stereo not drawn), the EC50 is over 191 µM and the IC50 turned out to be 89.1 µM.
Turning to `CC(=O)c1cccc(NC(=O)C(=O)C(C(=O)c2ccccc2F)C2OC(=O)c3ccccc32)c1` (stereo not drawn), the EC50 was over 389 µM and the IC50 amounted to 15.8 µM.
For `CC12CC3C(CC1SCC(=O)O2)C3(C)C` (stereo not drawn), the EC50 was over 302 µM and the IC50 was over 302 µM.
Regarding `Cc1n[nH]c(=O)n1N1C(=O)CCCC1=O`, the EC50 is over 200 µM and the IC50 is over 200 µM.
`COC(=O)CC1C2CC3C(C2=O)C13` (stereo not drawn): the EC50 is over 200 µM and the IC50 was over 200 µM.
`CCC(=O)N1C(=O)C(CC)(CC)C(=O)N1C(=O)CC`: the EC50 is over 200 µM and the IC50 was over 200 µM.
Consider `O=C1CSSCC(=O)NCCCN1`, for which the EC50 is over 45.7 µM and the IC50 is over 45.7 µM.
For `CN=c1ssc(=S)n1C(C)C`, the EC50 was over 200 µM and the IC50 amounted to 16.2 µM.
As to `C=C1C[C@](OC)([C@H](O)C(=O)N[C@@H](OC)[C@@H]2C[C@@H](O)C(C)(C)[C@@H](C[C@@H](COC)OC)O2)O[C@H](C)[C@@H]1C`, the result was inactive.
`CCOC(=O)c1cccn1S(=O)(=O)c1cc(Cl)ccc1NC(=O)CC`: the half-maximal effective concentration (EC50) is 6.17 µM and the IC50 stood at 195 µM.
For `C=CCCCN1CCCC(C)C1=S` (stereo not drawn) the same measures were over 251 µM and over 251 µM.
As for `O=C1C(=C(C(F)(F)Cl)C(F)(F)Cl)C2CCC1C2` (stereo not drawn), the result was inactive.
For the compound `CC1CN=C(Nc2ccc(S(N)(=O)=O)cc2)S1` (stereo not drawn), the EC50 was over 200 µM and the IC50 stood at 178 µM.
On the same counts, the results for `CC1(c2nc3ccccc3[nH]2)CCC(C#N)C(C)(C)O1` (stereo not drawn) are over 200 µM and over 200 µM.
For `CC1(C)C2CCC3(OCCO3)C1C(O)C2` (stereo not drawn) the same measures were over 427 µM and over 427 µM.
On the same counts, the results for `NP(N)(=O)Nc1ccccc1` are 10.5 µM and over 200 µM.
